Values quoted from earlier work, collected in US20240252447A1 (Ovid Therapeutics Inc., priority 2019, published 2024).

Assays:
[1] = test system: sleep onset and sleep maintenance; details: three-month efficacy study, insomnia
[2] = patients with a history of drug abuse

SMILES: Oc1noc2c1CCNC2 [Gaboxadol, 4,5,6,7-tetrahydroisoxazolo [5,4-c]pyridine-3-ol]
- effects in sleep onset and sleep maintenance [1]: failed to show significant effects in sleep onset and sleep maintenance
- time to peak concentration (conventional pharmaceutical formulations such as tablets and capsules): ≤ 30 min
- half-life (t1/2) (plasma half-life): 1.5 to 2 h
- psychiatric adverse events [2]: steep increase in psychiatric adverse events
